Laboratory results published in patent US20230285377A1, “KCNT1 INHIBITORS AND METHODS OF USE” (Praxis Precision Medicines, Inc., priority 2020, published 2023).

Biological target: KCNT1 (KNa1.1, Slack) (Homo sapiens (Human), UniProt Q5JUK3)
Experiment: KCNT1-WT-Basal - Patch Clamp Assay
Type: cell-based
Conditions: tetracycline inducible HEK-TREX cell line; SyncroPatch 384PE automated patch clamp; step to 0 mV; room temperature
Experimental: Inhibition of KCNT1 (KNa1.1, Slack) was evaluated using a tetracycline inducible cell line (HEK-TREX). Currents were recorded using the SyncroPatch 384PE automated, patch clamp system. Pulse generation and data collection were performed with PatchController384 V1.3.0 and DataController384 V1.2.1 (Nanion Technologies). The access resistance and apparent membrane capacitance were estimated using built-in protocols. Current were recorded in perforated patch mode (10 µM escin) from a population of cells. The cells were lifted, triturated, and resuspended at 800,000 cells/ml. The cells were allowed to recover in the cell hotel prior to experimentation. Currents were recorded at room temperature. The external solution contained the following (in mM): NaCl 105, NMDG 40, KC1 4, MgC12 1, CaC12 5 and HEPES 10 (pH = 7.4, Osmolarity ~300 mOsm). The extracellular solution was used as the wash, reference and compound delivery solution. The internal solution contained the following (in mM): NaCl 70, KF 70, KC1 10, EGTA 5, HEPES 5 and Escin 0.01 (pH = 7.2, Osmolarity ~295 mOsm). Escin is made at a 5 mM stock in water, aliquoted, and stored at -20° C. The compound plate was created at 2x concentrated in the extracellular solution. The compound was diluted to 1:2 when added to the recording well. The amount of DMSO in the extracellular solution was held constant at the level used for the highest tested concentration. A holding potential of -80 mV with a 100 ms step to 0 mV was used. Mean current was measured during the step to 0 mV. […] The average mean current from 3 sweeps was calculated and the % inhibition of each compound was calculated. The % Inhibition as a function of the compound concentration was fit with a Hill equation to derive IC50, slope, min and max parameters. If KCNT1 inhibition was less than 50% at the highest tested concentration or if an IC50 could not be calculated, then a percent inhibition was reported in place of the IC50.
In this table, “A” indicates IC50 of less than or equal to 1 µM; “B” indicates inhibition of between 1 µM to 20 µM; and “C” indicates inhibition of greater than or equal to 20 µM.

KCNT1 (KNa1.1, Slack), sequence (Q5JUK3 whole entry): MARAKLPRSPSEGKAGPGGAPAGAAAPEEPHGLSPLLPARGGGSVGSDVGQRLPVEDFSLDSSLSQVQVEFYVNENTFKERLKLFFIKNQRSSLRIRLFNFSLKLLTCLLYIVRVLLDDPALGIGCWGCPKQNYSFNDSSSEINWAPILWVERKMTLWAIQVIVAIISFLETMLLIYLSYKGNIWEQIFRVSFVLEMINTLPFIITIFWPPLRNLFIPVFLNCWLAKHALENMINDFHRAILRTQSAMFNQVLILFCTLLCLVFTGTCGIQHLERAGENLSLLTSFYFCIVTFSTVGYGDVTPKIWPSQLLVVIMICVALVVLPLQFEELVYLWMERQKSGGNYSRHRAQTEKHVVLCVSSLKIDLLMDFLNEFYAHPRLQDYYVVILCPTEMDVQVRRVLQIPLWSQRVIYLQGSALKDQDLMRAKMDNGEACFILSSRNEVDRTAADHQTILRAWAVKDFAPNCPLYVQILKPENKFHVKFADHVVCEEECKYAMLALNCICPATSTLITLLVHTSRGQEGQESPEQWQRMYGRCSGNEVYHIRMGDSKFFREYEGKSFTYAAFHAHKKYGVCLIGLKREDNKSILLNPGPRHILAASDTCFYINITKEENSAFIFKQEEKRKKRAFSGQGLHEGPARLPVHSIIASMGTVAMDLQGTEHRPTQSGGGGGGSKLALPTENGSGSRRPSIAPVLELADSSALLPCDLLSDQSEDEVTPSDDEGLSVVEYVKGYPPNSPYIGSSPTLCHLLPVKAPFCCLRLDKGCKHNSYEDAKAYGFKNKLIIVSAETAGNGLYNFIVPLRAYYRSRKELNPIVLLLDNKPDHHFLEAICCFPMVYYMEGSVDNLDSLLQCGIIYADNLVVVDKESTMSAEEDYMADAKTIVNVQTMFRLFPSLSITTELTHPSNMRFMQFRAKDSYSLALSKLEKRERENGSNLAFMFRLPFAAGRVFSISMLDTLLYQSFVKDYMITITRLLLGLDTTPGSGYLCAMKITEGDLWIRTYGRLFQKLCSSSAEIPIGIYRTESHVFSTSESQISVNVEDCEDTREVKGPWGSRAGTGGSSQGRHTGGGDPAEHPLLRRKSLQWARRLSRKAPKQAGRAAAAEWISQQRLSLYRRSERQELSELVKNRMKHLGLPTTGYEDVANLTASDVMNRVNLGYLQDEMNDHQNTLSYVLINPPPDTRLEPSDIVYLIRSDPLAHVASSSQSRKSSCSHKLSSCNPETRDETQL

`C[C@H](NC(=O)C1CCCCC1)c1cc(-c2ccnc(C(F)(F)F)c2)no1` (single isomer, unassigned) [Example 27] and `C[C@@H](NC(=O)c1ccnn1C1CCC1)c1cc(-c2ccnc(C(F)(F)F)c2)no1` (single isomer, unassigned) [Example 36] cannot be ordered by IC50: 1000 to 20000 nM for the first, ≤ 1000 nM for the second.

`C[C@@H](NC(=O)Cc1ccccc1)c1cc(-c2ccnc(C(F)(F)F)c2)no1` (single isomer, unassigned) [Example 28] and `C[C@H](NC(=O)Cc1ccccc1)c1cc(-c2ccnc(C(F)(F)F)c2)no1` (single isomer, unassigned) [Example 29] cannot be ordered by IC50: ≥ 20000 nM for the first, 1000 to 20000 nM for the second.

`C[C@@H](NC(=O)c1cc(C(F)F)nn1C)c1cc(-c2ccnc(C(F)(F)F)c2)no1` (single isomer, unassigned) [Example 30] and `C[C@H](NC(=O)c1cc(C(F)F)nn1C)c1cc(-c2ccnc(C(F)(F)F)c2)no1` (single isomer, unassigned) [Example 31] cannot be ordered by IC50: 1000 to 20000 nM for the first, ≤ 1000 nM for the second.

`C[C@H](NC(=O)c1cccc(C(F)(F)F)c1)c1cc(-c2ccnc(C(F)(F)F)c2)no1` (single isomer, unassigned) [Example 32] and `C[C@@H](NC(=O)c1cccc(C(F)(F)F)c1)c1cc(-c2ccnc(C(F)(F)F)c2)no1` (single isomer, unassigned) [Example 33] cannot be ordered by IC50: ≤ 1000 nM for the first, 1000 to 20000 nM for the second.

`C[C@H](NC(=O)N1CCCc2ccccc21)c1cc(-c2ccnc(C(F)(F)F)c2)no1` (single isomer, unassigned) [Example 34] and `C[C@@H](NC(=O)N1CCCc2ccccc21)c1cc(-c2ccnc(C(F)(F)F)c2)no1` (single isomer, unassigned) [Example 35] cannot be ordered by IC50: 1000 to 20000 nM for the first, ≤ 1000 nM for the second.

`C[C@H](NC(=O)c1ccnn1C1CCC1)c1cc(-c2ccnc(C(F)(F)F)c2)no1` (single isomer, unassigned) [Example 37] and `C[C@H](NC(=O)N1CCOc2ccccc21)c1cc(-c2ccnc(C(F)(F)F)c2)no1` (single isomer, unassigned) [Example 38] fall in the same range of IC50: 1000 to 20000 nM for the first, 1000 to 20000 nM for the second.

`C[C@@H](NC(=O)N1CCOc2ccccc21)c1cc(-c2ccnc(C(F)(F)F)c2)no1` (single isomer, unassigned) [Example 39] and `CC(NC(=O)c1cc(C(F)(F)F)nn1C)c1nc(-c2ccnc(C(F)(F)F)c2)ns1` (stereo not drawn) [Example 1, 1-methyl-3-(trifluoromethyl)-N-(1-(3-(2-(trifluoromethyl)pyridin-4-yl)-1,2,4-thiadiazol-5-yl)ethyl)-1H-pyrazole-5-carboxamide] cannot be ordered by IC50: ≤ 1000 nM for the first, ≤ 1000 nM for the second.

`COCc1cc(-c2nsc([C@H](C)NC(=O)c3cc(C(F)(F)F)nn3C)n2)ccn1` (single isomer, unassigned) [Example 42] and `COCc1cc(-c2nsc([C@@H](C)NC(=O)c3cc(C(F)(F)F)nn3C)n2)ccn1` (single isomer, unassigned) [Example 43] fall in the same range of IC50: 1000 to 20000 nM for the first, 1000 to 20000 nM for the second.

`C[C@H](NC(=O)c1ccccc1)c1nc(-c2ccnc(C3CC3)c2)ns1` [Example 4, (S)-N-(1-(3-(2-cyclopropylpyridin-4-yl)-1,2,4-thiadiazol-5-yl)ethyl)benzamide] and `C[C@@H](NC(=O)c1ccccc1)c1nc(-c2ccnc(C3CC3)c2)ns1` [Example 5, (R)-N-(1-(3-(2-cyclopropylpyridin-4-yl)-1,2,4-thiadiazol-5-yl)ethyl)benzamide] cannot be ordered by IC50: ≤ 1000 nM for the first, ≤ 1000 nM for the second.

`Cc1cc(-c2nsc([C@H](C)NC(=O)c3cc(C(F)(F)F)nn3C)n2)ccn1` [Example 40, 2-methyl-N-[(1S)-1-[3-(2-methyl-4-pyridyl)-1,2,4-thiadiazol-5-yl]ethyl]-5-(trifluoromethyl)pyrazole-3-carboxamide] and `Cc1cc(-c2nsc([C@@H](C)NC(=O)c3cc(C(F)(F)F)nn3C)n2)ccn1` [Example 41, (R)-1-methyl-N-(1-(3-(2-methylpyridin-4-yl)-1,2,4-thiadiazol-5-yl)ethyl)-3-(trifluoromethyl)-1H-pyrazole-5-carboxamide] fall in the same range of IC50: 1000 to 20000 nM for the first, 1000 to 20000 nM for the second.

`COc1cc(-c2nsc([C@H](C)NC(=O)c3cc(C(F)(F)F)nn3C)n2)ccn1` [Example 44, 2-methyl-N-[(1S)-1-[3-(2-methoxy-4-pyridyl)-1,2,4-thiadiazol-5-yl]ethyl]-5-(trifluoromethyl)pyrazole-3-carboxamide] and `COc1cc(-c2nsc([C@@H](C)NC(=O)c3cc(C(F)(F)F)nn3C)n2)ccn1` [Example 45, 2-methyl-N-[(1R)-1-[3-(2-methoxy-4-pyridyl)-1,2,4-thiadiazol-5-yl]ethyl]-5-(trifluoromethyl)pyrazole-3-carboxamide] cannot be ordered by IC50: ≤ 1000 nM for the first, ≤ 1000 nM for the second.

`C[C@H](NC(=O)c1cc(C(F)(F)F)nn1C)c1nc(N2CCCCC2)ns1` [Example 46, 2-methyl-N-[(1S)-1-[3-(1-piperidyl)-1,2,4-thiadiazol-5-yl]ethyl]-5-(trifluoromethyl)pyrazole-3-carboxamide] and `C[C@@H](NC(=O)c1cc(C(F)(F)F)nn1C)c1nc(N2CCCCC2)ns1` [Example 47, 2-methyl-N-[(1R)-1-[3-(1-piperidyl)-1,2,4-thiadiazol-5-yl]ethyl]-5-(trifluoromethyl)pyrazole-3-carboxamide] fall in the same range of IC50: 1000 to 20000 nM for the first, 1000 to 20000 nM for the second.
